Consider 23 compounds from patent US20060211698A1, “Bicyclic heteroaryl derivatives for treating viruses” (Genelabs, Inc., priority 2005, published 2006).

As usually defined, the inhibition is how much of the control response was suppressed. Low readings indicate little suppression, high ones strong suppression.

The target in this assay is T1, HCV-NS5b (Hepatitis C virus genotype 1b, UniProt Q9WMX2).
T1 construct: The cloned fragment was missing the C terminus 21 amino acid residues; (His)6 (C); made in house; host or cells: XL-1 cells (E. coli)
Description: HCV-NS5b Enzyme Assay. The conditions noted are these: 1 μM test compound; incorporation of [3H]-UTP, 37° C., 2 hours. Type of assay: biochemical. The text has this:
The coding sequence of NS5b protein was cloned by PCR from pFKI389luc/NS3-3′/ET as described by Lohmann, V., et al. (1999) Science 285, 110-113 using the following primers: • […] (SEQ. ID. NO. 1) • […] (SEQ. ID. NO. 2)
The cloned fragment was missing the C terminus 21 amino acid residues. The cloned fragment is inserted into an IPTG-inducible expression plasmid that provides an epitope tag (His)6 at the carboxy terminus of the protein.
The recombinant enzyme was expressed in XL-1 cells and after induction of expression, the protein was purified using affinity chromatography on a nickel-NTA column. Storage condition is 10 mM Tris-HCl pH 7.5, 50 mM NaCl, 0.1 mM EDTA, 1 mM DTT, 20% glycerol at −20° C.
The polymerase activity was assayed by measuring incorporation of radiolabeled UTP into a RNA product using a biotinylated, heteropolymeric template, which includes a portion of the HCV genome. Typically, the assay mixture […] contains 10 mM Tris-HCl (pH 7.5), 5 mM MgCl2, 0.2 mM EDTA, 10 mM KCl, 1 unit/μL RNAsin. 1 mM DTT, 10 μM each of NTP, including [^3H]-UTP, and 10 ng/μL biotinylated heteropolymeric template. 20× test compound in 2 μl's was then added as a 100% DMSO solution to achieve a final DMSO concentration of 5%. For IC50 determination a 10-point dose response was used. The compounds were serial diluted 2-fold […]. Typically for IC50's, compounds were tested starting at 50 uM or 2 μm depending on the potency. Reactions were started with addition of 10×NS5B in 4 μl's and allowed to incubate at 37° C. for 2 hours. Reactions were quenched with 8 μL of 100 mM EDTA and reaction mixtures (30 μL) were transferred to streptavidin-coated scintillation proximity microtiter plates (FlashPlates) and incubated at 4° C. overnight. Incorporation of radioactivity was determined by scintillation counting (cpm). The % Inhibition at a particular concentration was determined using the following equation, % Inhibition=100−[100*(cpm with inhibitor−bg)/(cpm with no inhibitor−bg)] where bg was the background with no enzyme.
In the case of `O=C(O)c1ccc2c(C3CCCCC3)c(-c3ccc4nc(-c5cccs5)ccc4c3)n(CC(=O)N3CCOCC3)c2c1` [Compound 224, 1-[N-morpholinocarbonylmethyl]-2-[2-thien-2-ylquinolin-6-yl]-3-cyclohexyl-1H-indole-6-carboxylic acid], the “% inhibition @ 1 μM” value was determined as 98.2%.

Consider `O=C(O)c1ccc2c(C3CCCCC3)c(-c3ccc4nc(-c5ccc(Cl)s5)ccc4c3)n(CC(=O)N3CCOCC3)c2c1` [Compound 225, 1-[N-morpholinocarbonylmethyl]-2-[2-(5-chlorothien-2-yl)quinolin-6-yl]-3-cyclohexyl-1H-indole-6-carboxylic acid], for which the “% inhibition @ 1 μM” value is given as 98.0%.

For the compound `O=C(O)c1ccc2c(C3CCCCC3)c(-c3ccc4nc(-c5cccnc5)ccc4c3)n(CC(=O)N3CCOCC3)c2c1` [Compound 226, 1-[N-morpholinocarbonylmethyl]-2-[2-pyrid-3-ylquinolin-6-yl]-3-cyclohexyl-1H-indole-6-carboxylic acid], the “% inhibition @ 1 μM” value was found to be 94.5%.

With `O=C(O)c1ccc2c(C3CCCCC3)c(-c3ccc4nc(-c5nccs5)ccc4c3)n(CC(=O)N3CCOCC3)c2c1` [Compound 227, 1-[N-morpholinocarbonylmethyl]-2-[2-thiazol-2-ylquinolin-6-yl]-3-cyclohexyl-1H-indole-6-carboxylic acid], the “% inhibition @ 1 μM” value amounted to 98.4%.

For `O=C(O)c1ccc2c(C3CCCCC3)c(-c3ccc4nc(-c5ccsc5)ccc4c3)n(CC(=O)N3CCOCC3)c2c1` [Compound 228, 1-[N-morpholinocarbonylmethyl]-2-[2-thien-3-ylquinolin-6-yl]-3-cyclohexyl-1H-indole-6-carboxylic acid], the “% inhibition @ 1 μM” value was 96.2%.

With `Cc1ccsc1-c1ccc2cc(-c3c(C4CCCCC4)c4ccc(C(=O)O)cc4n3CC(=O)N3CCOCC3)ccc2n1` [Compound 229, 3-Cyclohexyl-2-[2-(3-methyl-thiophen-2-yl)-quinolin-6-yl]-1-(2-morpholin-4-yl-2-oxo-ethyl)-1H-indole-6-carboxylic acid], testing at 1 µM gave an inhibition of 96.5%.

On to `Cc1cc(-c2ccc3cc(-c4c(C5CCCCC5)c5ccc(C(=O)O)cc5n4CC(=O)N4CCOCC4)ccc3n2)c(C)o1` [Compound 230, 3-Cyclohexyl-2-[2-(2,5-dimethyl-furan-3-yl)-quinolin-6-yl]-1-(2-morpholin-4-yl-2-oxo-ethyl)-1H-indole-6-carboxylic acid], for which 1 µM produced 92.2% inhibition.

For the compound `Cc1cccc(-c2ccc3cc(-c4c(C5CCCCC5)c5ccc(C(=O)O)cc5n4CC(=O)N4CCOCC4)ccc3n2)c1` [Compound 231, 3-Cyclohexyl-1-(2-morpholin-4-yl-2-oxo-ethyl)-2-(2-m-tolyl-quinolin-6-yl)-1H-indole-6-carboxylic acid], 1 µM produced 98.7% inhibition.

For the compound `Cc1ccccc1-c1ccc2cc(-c3c(C4CCCCC4)c4ccc(C(=O)O)cc4n3CC(=O)N3CCOCC3)ccc2n1` [Compound 232, 3-Cyclohexyl-1-(2-morpholin-4-yl-2-oxo-ethyl)-2-(2-o-tolyl-quinolin-6-yl)-1H-indole-6-carboxylic acid], the inhibition at 1 µM was 97.5%.

`COc1ccccc1-c1ccc2cc(-c3c(C4CCCCC4)c4ccc(C(=O)O)cc4n3CC(=O)N3CCOCC3)ccc2n1` [Compound 233, 3-Cyclohexyl-2-[2-(2-methoxy-phenyl)-quinolin-6-yl]-1-(2-morpholin-4-yl-2-oxo-ethyl)-1H-indole-6-carboxylic acid] registered an inhibition at 1 µM of 95.7%.

Take `Cc1csc(-c2ccc3cc(-c4c(C5CCCCC5)c5ccc(C(=O)O)cc5n4CC(=O)N4CCOCC4)ccc3n2)c1` [Compound 234, 3-Cyclohexyl-2-[2-(4-methyl-thiophen-2-yl)-quinolin-6-yl]-1-(2-morpholin-4-yl-2-oxo-ethyl)-1H-indole-6-carboxylic acid]: at 1 µM the inhibition was 97.4%.

On to `Cc1ccc(-c2ccc3cc(-c4c(C5CCCCC5)c5ccc(C(=O)O)cc5n4CC(=O)N4CCOCC4)ccc3n2)s1` [Compound 235, 3-Cyclohexyl-2-[2-(5-methyl-thiophen-2-yl)-quinolin-6-yl]-1-(2-morpholin-4-yl-2-oxo-ethyl)-1H-indole-6-carboxylic acid], for which the inhibition at 1 µM was 95.5%.

`Cc1nc(C)c(-c2ccc3cc(-c4c(C5CCCCC5)c5ccc(C(=O)O)cc5n4CC(=O)N4CCC(O)CC4)ccc3n2)s1` [Compound 236, 3-Cyclohexyl-2-[2-(2,4-dimethyl-thiazol-5-yl)-quinolin-6-yl]-1-[2-(4-hydroxy-piperidin-1-yl)-2-oxo-ethyl]-1H-indole-6-carboxylic acid] gave an inhibition at 1 µM of 92.5%.

Consider `Cc1nc(C)c(-c2ccc3cc(-c4c(C5CCCCC5)c5ccc(C(=O)O)cc5n4CC(=O)NCCN4CCOCC4)ccc3n2)s1` [Compound 237, 3-Cyclohexyl-2-[2-(2,4-dimethyl-thiazol-5-yl)-quinolin-6-yl]-1-[(2-morpholin-4-yl-ethylcarbamoyl)-methyl]-1H-indole-6-carboxylic acid], for which the inhibition at 1 µM stood at 94.7%.

Compound `Cc1nc(C)c(-c2ccc3cc(-c4c(C5CCCCC5)c5ccc(C(=O)O)c(C)c5n4CC(=O)N4CCOCC4)ccc3n2)s1` [Compound 238, 3-Cyclohexyl-2-[2-(2,4-dimethyl-thiazol-5-yl)-quinolin-6-yl]-7-methyl-1-(2-oxo-2-morpholino-4-yl-ethyl)-1H-indole-6-carboxylic acid] came in with an inhibition at 1 µM of 85.6%.

`Cc1nc(C)c(-c2ccc3cc(-c4c(C5CCCCC5)c5ccc(C(=O)O)cc5n4CC(=O)Nc4nn[nH]n4)ccc3n2)s1` [Compound 239, 3-Cyclohexyl-2-[2-(2,4-dimethyl-thiazol-5-yl)-quinolin-6-yl]-1-[(2H-tetrazol-5-ylcarbamoyl)-methyl]-1H-indole-6-carboxylic acid] yielded an inhibition at 1 µM of 96.9%.

On to `Cc1nc(C)c(-c2ccc3cc(-c4c(C5CCCCC5)c5ccc(C(=O)NS(C)(=O)=O)cc5n4CC(=O)N4CCOCC4)ccc3n2)s1` [Compound 240, N-[3-Cyclohexyl-2-[2-(2,4-dimethyl-thiazol-5-yl)-quinolin-6-yl]-1-(2-morpholin-4-yl-2-oxo-ethyl)-1H-indole-6-carbonyl]-methanesulfonamide], for which the inhibition at 1 µM was 97.7%.

The compound `Cc1nc(C)c(-c2ccc3cc(-c4c(C5CCCCC5)c5ccc(C(=O)O)cc5n4CC(=O)N4CCC(C(=O)O)CC4)ccc3n2)s1` [Compound 241, 1-[2-(4-Carboxy-piperidin-1-yl)-2-oxo-ethyl]-3-cyclohexyl-2-[2-(2,4-dimethyl-thiazol-5-yl)-quinolin-6-yl]-1H-indole-6-carboxylic acid] showed an inhibition at 1 µM of 94.1%.

In turn, `Cc1nc(C)c(-c2ccc3cc(-c4c(C5CCCCC5)c5ccc(C(=O)NCCC#N)cc5n4CC(=O)N4CCOCC4)ccc3n2)s1` [Compound 242, 3-Cyclohexyl-2-[2-(2,4-dimethyl-thiazol-5-yl)-quinolin-6-yl]-1-(2-morpholin-4-yl-2-oxo-ethyl)-1H-indole-6-carboxylic acid (2-cyano-ethyl)-amide] registered an inhibition at 1 µM of 63.6%.

Compound `Cc1nc(C)c(-c2ccc3cc(-c4c(C5CCCCC5)c5ccc(C#N)cc5n4CC(=O)N4CCOCC4)ccc3n2)s1` [Compound 243, 3-Cyclohexyl-2-[2-(2,4-dimethyl-thiazol-5-yl)-quinolin-6-yl]-1-(2-morpholin-4-yl-2-oxo-ethyl)-1H-indole-6-carbonitrile] registered an inhibition at 1 µM of 37.8%.

As to `Cc1nc(C)c(-c2ccc3cc(-c4c(C5CCCCC5)c5ccc(-c6nnn[nH]6)cc5n4CC(=O)N4CCOCC4)ccc3n2)s1` [Compound 244, 2-[3-Cyclohexyl-2-[2-(2,4-dimethyl-thiazol-5-yl)-quinolin-6-yl]-6-(1H-tetrazol-5-yl)-indol-1-yl]-1-morpholin-4-yl-ethanone], the inhibition at 1 µM was found to be 97.2%.

Regarding `Cc1nc(C)c(-c2ccc3cc(-c4c(C5CCCCC5)c5ccc(C(=O)NCCc6nnn[nH]6)cc5n4CC(=O)N4CCOCC4)ccc3n2)s1` [Compound 245, 3-Cyclohexyl-2-[2-(2,4-dimethyl-thiazol-5-yl)-quinolin-6-yl]-1-(2-morpholin-4-yl-2-oxo-ethyl)-1H-indole-6-carboxylic acid [2-(1H-tetrazol-5-yl)-ethyl]-amide], the inhibition at 1 µM worked out at 91.3%.

Take `O=C(O)c1ccc2c(C3CCCCC3)c(-c3ccc4nc(-c5cccc(OC(F)(F)F)c5)ccc4c3)n(CC(=O)N3CCOCC3)c2c1` [Compound 246, 3-Cyclohexyl-1-(2-morpholin-4-yl-2-oxo-ethyl)-2-[2-(3-trifluoromethoxy-phenyl)-quinolin-6-yl]-1H-indole-6-carboxylic acid]: the inhibition at 1 µM amounted to 96.9%.
